Data on three molecules can be found in article PMC12668304, “A Triple Threat Against Ovarian Cancer: Os(II)‐Pt(IV)‐Ceritinib Conjugates for Photodynamic Therapy, Chemotherapy, and Immunogenic Cell Death Induction” (Angewandte Chemie (International Ed. in English), 2025).

For data set [1], the system named is A2780 cells. Description: (Photo-)cytotoxicity on 2D cell monolayers, resazurin assay. It is filed as cell-based, human. The following applies: for IC50: A2780, normoxic, 4 h exposure. The procedure: (§1) The 2D cytotoxicity and phototoxicity profiles of Os‐Pt‐Cer and controls, were evaluated in a panel of cancerous cell lines, including A2780 (ovarian carcinoma), A549 (non‐small cell lung carcinoma), and MCA205 (murine fibrosarcoma), as well as a non‐cancerous retinal pigment epithelial cell line (RPE‐1). Cells were treated with the compounds (0.003–100 µM) for 4 h, either kept in the dark or irradiated at 670 nm (13.5 J cm^− ^2) (Table S4 and Figure S22) or 740 nm (12.6 J cm^− ^2) and viability was assessed 44 h post‐treatment. To verify robustness, the incubation was extended to 72 h. […]
(§2) Human ovarian cancer (A2780) cells and mouse fibrosarcoma cells (MCA205) were cultured in RPMI media. Retinal pigment epithelium (RPE -1) cells were cultured in DMEM/F -12 medium. Lung cancer cells (A549) were cultured in F -12K medium. These cell lines were complemented with 10% of fetal bovine serum, 100 U/mL penicillin -streptomycin mixture, and maintained in a humidified atmosphere […]
(§3) (Photo-)cytotoxicity on 2D cell monolayers
(§4) The cytotoxicity of the compounds was assessed by measuring cell viability using a resazurin assay.
(§5) The cells were seeded in triplicates in 96 well plates with a density of 10 4 cells per well in 100 μL of media. After 24 h, the medium was removed, and the cells were treated with increasing concentrations (0.003 → 100 µM) of the compounds diluted in cell media , achieving a total volume of 100 μL/well.
(§6) The cells were incubated with the compound for 4 h (final incubation time 48 h) or 24 h (final incubation time 72 h). After this time, the media was removed and replaced with 100 μL of fresh medium. For the phototoxicity studies, the cells were exposed to light with an Atlas Photonics LUMOS BIO irradiation system. Each well was constantly irradiated at 670 nm (60 min, 13.50 J·cm-2) or 740 nm (60 min, 12.60 J·cm-2). During the irradiation, the temperature of the plate was maintained at 37 °C. The cells were grown in the incubator for an additional 44 or 48 h, respectively. For the determination of the dark cytotoxicity, the cells were not irradiated and after the medium exchange directly incubated for 44 h.
(§7) After this time, the medium was replaced with fresh medium containing resazurin (0.2 mg/mL). After […]
(§8) 4 h of incubation, the conversion of resazurin into resorufin was determined upon excitation at 540 nm and measurement of its emission at 590 nm using a Cytation 5 Imaging Reader from BioTek. The obtained data was analysed with the GraphPad Prism software […]
(§9) After 24 h of incubation at 37 °C, 5% CO 2, plates were read using a SpectraMaxM2 Microplate Reader ( λexc = 540 nm; λread = 590 nm). Fluorescence data were normalised, and data were fitted using GraphPad Prism Software, and IC 50 was calculated by non - linear regression. Changes in the size and shape of MCTS were monitored every 24 h using Cytation 5 Imaging Reader from BioTek, objective x4.
(§10) Intracellular distribution by confocal fluorescence microscopy
(§11) 10^4 cells/well (A2780 cells) were seeded in complete medium (RPMI) in µ -slide 8 well (Ibidi) (100 µl/well) and left for 24 h to attach to the bottom. Then, the culture medium was removed , and 100 µl of solution of the corresponding complexes (5 µM) was added. The complexes were incubated with the cells for 4 hours. Thereafter, the medium was removed and replaced by RPMI without phenol red , and Hoechst and MitoTracker Green were added at a final concentration of 1 µg/mL. They were incubated with the cells for 30 min in the dark at 37 °C. Images were collected in a sequential mode in a Leica TCS SP8 confocal microscope with a 60x oil immers ion objective, a line average of 4, and a format of […]
(§12) (MTG)→ 500 -550nm, and 488 nm (complexes)→ 680 -730 nm. The confocal pinhole was 1 Airy unit.
(§13) Images were analysed with LAS X Flim FCS software.
(§14) Intracellular distribution by ICP -MS
(In general: The colour change of resazurin is a common sign of viable cells or microbes.)

For data set [2], the system named is A549 cells. The description is as above. To be noted: A549, normoxic, dark, 4 h exposure, total 48 h incubation; read-out: IC50 Dark. The class given is cell-based. The method, then:
as §1, §2, §3, §4, §5, §6, §7, §8, §9, §10, §11, §12, §13, §14

In data set [3] the test system is RPE‐1 cells. The description is as above. It is filed as cell-based. To be noted: for IC50: RPE‐1, normoxic, 4 h exposure. The method, then:
as §1, §2, §3, §4, §5, §6, §7, §8, §9, §10, §11, §12, §13, §14

The test system of data set [4] is MCA205 cells. Described as above. The class given is cell-based, mouse. The following applies: MCA205, normoxic, dark, 4 h exposure, total 48 h incubation; read-out: IC50 Dark. The procedure:
as §1, §2, §3, §4, §5, §6, §7, §8, §9, §10, §11, §12, §13, §14

The test system of data set [5] is A2780 MCTSs. Put plainly: (Photo-)cytotoxicity on 3D multicellular tumour spheroids, resazurin assay. It is filed as cell-based, human. To be noted: normoxic, dark, one week of incubation, read-out: IC50 Dark. The procedure:
A2780 spheroids (ca. 500 µm in diameter) were treated with increasing concentrations of the compounds and after 24 h of incubation, the medium was replaced with fresh medium, and the cells were either kept in the dark or irradiated for 1 h at 740 nm. Images of the spheroids were taken every 24 h for 3 days.
Additionally, the phototoxicity was tested via a fluorometric resazurin assay in A2780 MCTSs (Table 3). […] (Figure S29). […] This can be attributed to the different biological endpoints and time frames of the assays: spheroid diameter was monitored over 72 h, whereas resazurin measurements were performed after 7 days, potentially capturing delayed cytotoxic effects due to differences in drug cellular uptake.
4 h of incubation, the conversion of resazurin into resorufin was determined upon excitation at 540 nm and measurement of its emission at 590 nm using a Cytation 5 Imaging Reader from BioTek. The obtained data was analysed with the GraphPad Prism software
MCTS were cultured using ultra-low attachment 96 wells plates from Corning (Fisher Scientific 15329740). A2780 cells were seeded at a density of 1,500 cells per well in 100 μL of RPMI. Within 2-3 days, MCTSs have approximately 500 μm of diameter. The formation as well as integrity and diameter of the MCTSs were monitored by microscopy.
(Photo-)cytotoxicity on 3D multicellular tumor spheroids (MCTS)
After 2 days of growing at 37 °C in 5% CO2, the medium was removed, and MCTSs were treated by adding 100 μL of the medium in the well with increasing concentrations of compounds (Os-Pt-Cer, Os, Ceritinib, Oxaliplatin, cisplatin, and Ce6 as additional control). For untreated reference MCTSs, only half of the medium was added with fresh medium. After 24 hours, the MCTSs were divided into two identical groups. The first group was strictly kept in the dark. The second group was irradiated at 740 nm for 1 h (12.60 J·cm-2) using a LUMOS-BIO photoreactor (Atlas Photonics). After the irradiation, all groups were incubated additional 7 days. Thereafter, medium was replaced with 100 μL of fresh medium containing resazurin (0.2 mg/mL). After 24 h of incubation at 37 °C, 5% CO 2, plates were read using a SpectraMaxM2 Microplate Reader ( λexc = 540 nm; λread = 590 nm). Fluorescence data were normalised, and data were fitted using GraphPad Prism Software, and IC 50 was calculated by non - linear regression. Changes in the size and shape of MCTS were monitored every 24 h using Cytation 5 Imaging Reader from BioTek, objective x4. […]
Figure S29. Cell viability graphs after one week of incubation. Studied compounds were incubated for 24 h, thereafter the medium was renovated. For PDT, plates were irradiated at 740 nm for 1h using a LUMOS-BIO photoreactor (Atlas Photonics). For both PDT and regular cytotoxicity, cells were incubated for one week at 37 °C, 5 % CO2. The medium was renovated each two days. Then, the medium was replaced with 100 µL of fresh medium containing 0.2 mg/mL resazurin (Acros Organics). After 24 h of incubation, the fluorescence signal of the resazurin product was recorded (λexc = 540 nm; λem = 590 nm) using a Cytation 5 Cell Imaging Multi-Mode Reader (Biotek - Agilent).
(1 picture or pasted object on this page, not shown here)

On the set-up of data set [6]: method as in not given. To be noted: standard, acetonitrile; ref not given; cited from earlier work.
[7] abbreviates: dark, total 48 h incubation, read-out: IC50 Dark.
The mark [8] stands for this setting: Homo sapiens, 740 nm (60 min, 12.60 J·cm^−2), total 48 h, read-out: IC50 Irrad. 740 nm.
[9] abbreviates: Homo sapiens, dark, total 48 h incubation, read-out: IC50 Dark.

Like-named read-outs stand apart in the source and are kept apart here.

On to `N.N.[Cl][Pt][Cl]` [Cisplatin], for which the 50% inhibitory concentration (IC50) in data set [1] (setting [7]) amounted to 1.92 ± 0.4 µM; in data set [2], 1.11 ± 0.33 µM; in data set [3] (setting [7]), 15.2 ± 0.7 µM; in data set [4], 0.72 ± 0.2 µM; in data set [5], 2 ± 0.4 µM.

On to `C=CC1=C(C)c2cc3[nH]c(cc4nc(cc5[nH]c(cc1n2)c(C)c5CCC(=O)O)C(CCC(=O)O)=C4C)c(C)c3C=C` [PPIX, Protoporphyrin], for which the “PI (IC50 dark/IC50 irradiation 740 nm)” value in data set [1] (A2780) is recorded as not below 6; in data set [3] (RPE‐1), not below 2. Moreover, the IC50 in data set [1] (setting [8]) was 17.3 ± 0.01 µM; in data set [1] (setting [9]) it was more than 100 µM; in data set [3] (setting [8]) it was 41.6 ± 0.3 µM; in data set [3] (setting [9]), more than 100 µM.

On to `[Ru+2].c1ccc(-c2ccccn2)nc1.c1ccc(-c2ccccn2)nc1.c1ccc(-c2ccccn2)nc1` [Ru(bpy)3, Tris(2,2'-bipyridyl) ruthenium (II)], for which, in data set [6], the Quantum yield was 0.077 and the “Singlet oxygen quantum yield” value is 0.77.

Broadly, the IC50 is the concentration that inhibits the measured activity by half.
